# According to patent publication US11572399B2, “Long-acting GIP peptide analogues” (University of Copenhagen, priority 2017, dated 2023):
# Like-named read-outs stand apart in the source and are kept apart here. Peptide text beside a SMILES is read from it. * marks the point of attachment. C16 diacid = O=C(O)CCCCCCCCCCCCCCC(=O)*
# Columns and labels:
# [1] = molecular target: T1, human GIP receptor (Homo sapiens, UniProt P48546); assay: 125I-human GIP competition binding assay, in the presence and absence of 2% HSA; settings: for Binding fold (paired): fold decrease in affinity compared to GIP(3-30)NH2;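 on all read-outs here: nonspecific binding taken as radioligand bound to untransfected cells, IC50 obtained from nonlinear regression fits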
# T1 construct: host or cells: COS-7, transient transfection (calcium phosphate), cDNA in pCMV-Script
# T1 sequence (P48546 22-466): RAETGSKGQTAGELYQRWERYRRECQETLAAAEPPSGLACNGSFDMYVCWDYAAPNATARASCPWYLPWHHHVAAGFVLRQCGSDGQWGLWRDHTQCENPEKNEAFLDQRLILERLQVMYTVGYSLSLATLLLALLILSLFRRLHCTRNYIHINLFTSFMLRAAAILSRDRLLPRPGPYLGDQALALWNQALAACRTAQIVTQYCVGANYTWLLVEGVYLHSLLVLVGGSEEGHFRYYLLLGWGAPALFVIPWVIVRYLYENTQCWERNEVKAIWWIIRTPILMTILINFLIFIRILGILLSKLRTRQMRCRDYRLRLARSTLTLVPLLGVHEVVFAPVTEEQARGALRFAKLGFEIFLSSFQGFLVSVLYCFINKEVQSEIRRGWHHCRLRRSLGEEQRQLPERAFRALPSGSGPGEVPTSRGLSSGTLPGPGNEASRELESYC
# [2] = molecular target: T1, human GIP receptor; assay: cAMP accumulation assay, agonism (ligand alone); type: cell-based; settings: COS-7 cells, Table 1; for EC50: read-out: cAMP agonism nM (EC50); for cAMP agonism Emax: intrinsic cAMP activity; for Emax: COS-7, intrinsic cAMP activity
# [3] = Table 3b, initial data, read-out: Binding IC50
# [4] = heterologous competition binding, transiently transfected COS-7 cells expressing the human GIP receptor, read-out: Binding
SMILES,"IC50 [1, 3] [nM]",Binding fold (paired) ([1]; Table 3b) [fold],"IC50 [1, 4] [nM]",EC50 [2] [nM],cAMP agonism Emax [2] [%],Emax [2] [%]
"CCCCCCCCCCCC(=O)N[C@@H](CCC(=O)O)C(=O)NCC(=O)N[C@H](C(=O)N[C@@H](Cc1ccccc1)C(=O)N[C@H](C(=O)N[C@@H](CO)C(=O)N[C@@H](CC(=O)O)C(=O)N[C@@H](Cc1ccc(O)cc1)C(=O)N[C@@H](CO)C(=O)N[C@H](C(=O)N[C@@H](C)C(=O)N[C@@H](CCSC)C(=O)N[C@@H](CC(=O)O)C(=O)N[C@@H](CCCCN)C(=O)N[C@H](C(=O)N[C@@H](Cc1c[nH]cn1)C(=O)N[C@@H](CCC(N)=O)C(=O)N[C@@H](CCC(N)=O)C(=O)N[C@@H](CC(=O)O)C(=O)N[C@@H](Cc1ccccc1)C(=O)N[C@H](C(=O)N[C@@H](CC(N)=O)C(=O)N[C@@H](Cc1c[nH]c2ccccc12)C(=O)N[C@@H](CC(C)C)C(=O)N[C@@H](CC(C)C)C(=O)N[C@@H](C)C(=O)N[C@@H](CCC(N)=O)C(=O)N[C@@H](CCCCN)C(N)=O)C(C)C)[C@@H](C)CC)[C@@H](C)CC)[C@@H](C)CC)[C@@H](C)O [AT101, [hGIP(3-30)NH2—C12/3]]",9.9,0.7,9.9,0.7,62,
"CCCCCCCCCCCC(=O)NCCCC[C@H](NC(=O)[C@H](CC(=O)O)NC(=O)[C@H](CCSC)NC(=O)[C@H](C)NC(=O)[C@@H](NC(=O)[C@H](CO)NC(=O)[C@H](Cc1ccc(O)cc1)NC(=O)[C@H](CC(=O)O)NC(=O)[C@H](CO)NC(=O)[C@@H](NC(=O)[C@H](Cc1ccccc1)NC(=O)[C@@H](NC(=O)CNC(=O)[C@@H](N)CCC(=O)O)[C@@H](C)O)[C@@H](C)CC)[C@@H](C)CC)C(=O)N[C@H](C(=O)N[C@@H](Cc1c[nH]cn1)C(=O)N[C@@H](CCC(N)=O)C(=O)N[C@@H](CCC(N)=O)C(=O)N[C@@H](CC(=O)O)C(=O)N[C@@H](Cc1ccccc1)C(=O)N[C@H](C(=O)N[C@@H](CC(N)=O)C(=O)N[C@@H](Cc1c[nH]c2ccccc12)C(=O)N[C@@H](CC(C)C)C(=O)N[C@@H](CC(C)C)C(=O)N[C@@H](C)C(=O)N[C@@H](CCC(N)=O)C(=O)N[C@@H](CCCCN)C(N)=O)C(C)C)[C@@H](C)CC [AT102, [hGIP(3-30)NH2—C12/16]]",59.1,6.1,59.1,0.7,66,
"CCCCCCCCCCCCCCCC(=O)N[C@@H](CCC(=O)O)C(=O)NCC(=O)N[C@H](C(=O)N[C@@H](Cc1ccccc1)C(=O)N[C@H](C(=O)N[C@@H](CO)C(=O)N[C@@H](CC(=O)O)C(=O)N[C@@H](Cc1ccc(O)cc1)C(=O)N[C@@H](CO)C(=O)N[C@H](C(=O)N[C@@H](C)C(=O)N[C@@H](CCSC)C(=O)N[C@@H](CC(=O)O)C(=O)N[C@@H](CCCCN)C(=O)N[C@H](C(=O)N[C@@H](Cc1c[nH]cn1)C(=O)N[C@@H](CCC(N)=O)C(=O)N[C@@H](CCC(N)=O)C(=O)N[C@@H](CC(=O)O)C(=O)N[C@@H](Cc1ccccc1)C(=O)N[C@H](C(=O)N[C@@H](CC(N)=O)C(=O)N[C@@H](Cc1c[nH]c2ccccc12)C(=O)N[C@@H](CC(C)C)C(=O)N[C@@H](CC(C)C)C(=O)N[C@@H](C)C(=O)N[C@@H](CCC(N)=O)C(=O)N[C@@H](CCCCN)C(N)=O)C(C)C)[C@@H](C)CC)[C@@H](C)CC)[C@@H](C)CC)[C@@H](C)O [AT104, [hGIP(3-30)NH2—C16/3]]",75,4.9,75,,,81
"CCCCCCCCCCCCCCCC(=O)NCCCC[C@H](NC(=O)[C@H](CC(=O)O)NC(=O)[C@H](CCSC)NC(=O)[C@H](C)NC(=O)[C@@H](NC(=O)[C@H](CO)NC(=O)[C@H](Cc1ccc(O)cc1)NC(=O)[C@H](CC(=O)O)NC(=O)[C@H](CO)NC(=O)[C@@H](NC(=O)[C@H](Cc1ccccc1)NC(=O)[C@@H](NC(=O)CNC(=O)[C@@H](N)CCC(=O)O)[C@@H](C)O)[C@@H](C)CC)[C@@H](C)CC)C(=O)N[C@H](C(=O)N[C@@H](Cc1c[nH]cn1)C(=O)N[C@@H](CCC(N)=O)C(=O)N[C@@H](CCC(N)=O)C(=O)N[C@@H](CC(=O)O)C(=O)N[C@@H](Cc1ccccc1)C(=O)N[C@H](C(=O)N[C@@H](CC(N)=O)C(=O)N[C@@H](Cc1c[nH]c2ccccc12)C(=O)N[C@@H](CC(C)C)C(=O)N[C@@H](CC(C)C)C(=O)N[C@@H](C)C(=O)N[C@@H](CCC(N)=O)C(=O)N[C@@H](CCCCN)C(N)=O)C(C)C)[C@@H](C)CC [AT105, [hGIP(3-30)NH2—C16/16]]",522,,522,,,34
"CCCCCCCCCCCCCC(=O)N[C@@H](CCC(=O)O)C(=O)NCC(=O)N[C@H](C(=O)N[C@@H](Cc1ccccc1)C(=O)N[C@H](C(=O)N[C@@H](CO)C(=O)N[C@@H](CC(=O)O)C(=O)N[C@@H](Cc1ccc(O)cc1)C(=O)N[C@@H](CO)C(=O)N[C@H](C(=O)N[C@@H](C)C(=O)N[C@@H](CCSC)C(=O)N[C@@H](CC(=O)O)C(=O)N[C@@H](CCCCN)C(=O)N[C@H](C(=O)N[C@@H](Cc1c[nH]cn1)C(=O)N[C@@H](CCC(N)=O)C(=O)N[C@@H](CCC(N)=O)C(=O)N[C@@H](CC(=O)O)C(=O)N[C@@H](Cc1ccccc1)C(=O)N[C@H](C(=O)N[C@@H](CC(N)=O)C(=O)N[C@@H](Cc1c[nH]c2ccccc12)C(=O)N[C@@H](CC(C)C)C(=O)N[C@@H](CC(C)C)C(=O)N[C@@H](C)C(=O)N[C@@H](CCC(N)=O)C(=O)N[C@@H](CCCCN)C(N)=O)C(C)C)[C@@H](C)CC)[C@@H](C)CC)[C@@H](C)CC)[C@@H](C)O [AT110, [hGIP(3-30)NH2—C14/3]]",,5.2,,,,64
"CC[C@H](C)[C@H](NC(=O)[C@H](CO)NC(=O)[C@H](Cc1ccc(O)cc1)NC(=O)[C@H](CC(=O)O)NC(=O)[C@H](CO)NC(=O)[C@@H](NC(=O)[C@H](Cc1ccccc1)NC(=O)[C@@H](NC(=O)CNC(=O)[C@@H](N)CCC(=O)O)[C@@H](C)O)[C@@H](C)CC)C(=O)N[C@@H](C)C(=O)N[C@@H](CCSC)C(=O)N[C@@H](CC(=O)O)C(=O)N[C@@H](CCCCN)C(=O)N[C@H](C(=O)N[C@@H](Cc1c[nH]cn1)C(=O)N[C@@H](CCC(N)=O)C(=O)N[C@@H](CCC(N)=O)C(=O)N[C@@H](CC(=O)O)C(=O)N[C@@H](Cc1ccccc1)C(=O)N[C@H](C(=O)N[C@@H](CC(N)=O)C(=O)N[C@@H](Cc1c[nH]c2ccccc12)C(=O)N[C@@H](CC(C)C)C(=O)N[C@@H](CCCCNC(=O)CCCCCCCCCCCCCCC(=O)O)C(=O)N[C@@H](C)C(=O)N[C@@H](CCC(N)=O)C(=O)N[C@@H](CCCCN)C(N)=O)C(C)C)[C@@H](C)CC [AT316, [hGIP(3-30)NH2[L27K]-C16diacid/27]] (H-EGTFISDYSIAMDKIHQQDFVNWLK(C16 diacid)AQK-NH2; N-terminus assumed)",,,,,,6.2
"CC[C@H](C)[C@H](NC(=O)[C@H](CO)NC(=O)[C@H](Cc1ccc(O)cc1)NC(=O)[C@H](CC(=O)O)NC(=O)[C@H](CO)NC(=O)[C@@H](NC(=O)[C@H](Cc1ccccc1)NC(=O)[C@@H](NC(=O)CNC(=O)[C@@H](N)CCC(=O)O)[C@@H](C)O)[C@@H](C)CC)C(=O)N[C@@H](C)C(=O)N[C@@H](CCSC)C(=O)N[C@@H](CC(=O)O)C(=O)N[C@@H](CCCCN)C(=O)N[C@H](C(=O)N[C@@H](Cc1c[nH]cn1)C(=O)N[C@@H](CCC(N)=O)C(=O)N[C@@H](CCC(N)=O)C(=O)N[C@@H](CC(=O)O)C(=O)N[C@@H](Cc1ccccc1)C(=O)N[C@H](C(=O)N[C@@H](CC(N)=O)C(=O)N[C@@H](Cc1c[nH]c2ccccc12)C(=O)N[C@@H](CC(C)C)C(=O)N[C@@H](CC(C)C)C(=O)N[C@@H](CCCCNC(=O)CCCCCCCCCCCCCCC(=O)O)C(=O)N[C@@H](CCC(N)=O)C(=O)N[C@@H](CCCCN)C(N)=O)C(C)C)[C@@H](C)CC [AT317, [hGIP(3-30)NH2[A28K]-C16diacid/28]] (H-EGTFISDYSIAMDKIHQQDFVNWLLK(C16 diacid)QK-NH2; N-terminus assumed)",,,,62,,21.8
"CC[C@H](C)[C@H](NC(=O)[C@H](CO)NC(=O)[C@H](Cc1ccc(O)cc1)NC(=O)[C@H](CC(=O)O)NC(=O)[C@H](CO)NC(=O)[C@@H](NC(=O)[C@H](Cc1ccccc1)NC(=O)[C@@H](N)[C@@H](C)O)[C@@H](C)CC)C(=O)N[C@@H](C)C(=O)N[C@@H](CCSC)C(=O)N[C@@H](CC(=O)O)C(=O)N[C@@H](CCCCN)C(=O)N[C@H](C(=O)N[C@@H](Cc1c[nH]cn1)C(=O)N[C@@H](CCC(N)=O)C(=O)N[C@@H](CCC(N)=O)C(=O)N[C@@H](CC(=O)O)C(=O)N[C@@H](Cc1ccccc1)C(=O)N[C@H](C(=O)N[C@@H](CC(N)=O)C(=O)N[C@@H](Cc1c[nH]c2ccccc12)C(=O)N[C@@H](CC(C)C)C(=O)N[C@@H](CC(C)C)C(=O)N[C@@H](C)C(=O)N[C@@H](CCC(N)=O)C(=O)N[C@@H](CCCCNC(=O)CCCCCCCCCCCCCCC(=O)O)C(N)=O)C(C)C)[C@@H](C)CC [AT372, [hGIP(5-30)NH2[Q30K]-C16diacid/30]]",,,,,,6
